Assay results reported in patent publication US20240409576A1, “-ent-19-norprogesterone, compositions and uses thereof to treat traumatic brain injury (TBI), including concussions-” (Oragenics, Inc., priority 2015, published 2024).
≈ marks a conversion by molar mass, not a printed value. Entries after “also recorded” stand apart in the source; their conditions may differ. Like-named read-outs stand apart in the source and are kept apart here.

Legend:
[1] = tested on: moderate-to-severe adult TBI; settings: progesterone IV for 3 days after injury, cited from earlier work
[2] = tested on: rat model of traumatic brain injury (mid-line cortical impact); type: in vivo, Sprague-Dawley rats; settings: for Motor function (neuroscore) compared to vehicle-treated rats: 48 h post-injury, 6 h, 24 h
[3] = tested on: rat model of traumatic brain injury (mid-line cortical impact); type: in vivo, Sprague-Dawley rats; settings: 48 h post-injury
[4] = tested on: rat model of traumatic brain injury (mid-line cortical impact); type: in vivo, Sprague-Dawley rats; settings: 48 h post-injury; remark: listed apart in the source
[5] = tested on: rat model of traumatic brain injury (mid-line cortical impact); type: in vivo, Sprague-Dawley rats
[6] = tested on: rat model of traumatic brain injury (mid-line cortical impact); type: in vivo, Sprague-Dawley rats; remark: listed apart in the source
[7] = tested on: rat model of traumatic brain injury (mid-line cortical impact); type: in vivo, Sprague-Dawley rats; settings: 48 h post-injury; for Time spent in thigmotaxia compared to vehicle-treated rats: trial not stated
[8] = tested on: nasal mucosa of a rat; assay: Intranasal penetration of Evans Blue labeled PRV002, atomizer vs pipette; type: in vivo; settings: PRV002 labeled with Evans Blue dye, post-mortem evaluation
Description: The goal of this study is to evaluate the motor and cognitive function of rats treated via intranasal administration with PRV-002, an analogue of the enantiomer of progesterone, following traumatic brain injury. Prior to the initiation of the treatment study, an anatomical evaluation is performed using PRV002 labeled with Evans Blue dye to determine the optimal intranasal/intracerebral penetration of compound using intranasal administration via a miniature atomizer vs. a manual pipette.

[9] = physchem; settings: aqueous with cosolvent or surfactant or cyclodextrin, thermodynamic from solid
[10] = under certain conditions; cited from earlier work
[11] = trial 1, intraperitoneal 4 mg/kg
[12] = trial 1, intraperitoneal 16 mg/kg
[13] = trial 2, intraperitoneal 4 mg/kg
[14] = trial 2, intraperitoneal 16 mg/kg
[15] = trial not given, intraperitoneal 4 mg/kg
[16] = trial not given, intraperitoneal 16 mg/kg
[17] = 48 h post-injury, intranasal 0.05 mg/kg

For CC(=O)[C@H]1CC[C@H]2[C@@H]3CCC4=CC(=O)CC[C@]4(C)[C@H]3CC[C@]12C [progesterone], the Mortality rate ([1]; control 30.4%) is listed as 13.6% and the Serious adverse events ([1]; data safety monitoring board) is listed as “no serious adverse events attributable to progesterone treatment”.
For CC(=O)[C@@H]1CC[C@@H]2[C@H]3CCC4=CC(=O)CC[C@H]4[C@@H]3CC[C@]21C (single isomer, unassigned; ent-19) [PRV-002, ent-19-norpregn-4-ene-3,20-dione], the “Group differences in neuroscore” value ([2]; 24 h post-injury, intraperitoneal 4 mg/kg or 16 mg/kg, sham, vehicle and treated groups) was “failed to reveal significant differences; also recorded: no significant group differences”, the “Motor function (neuroscore) compared to vehicle-treated rats” value ([2]; intraperitoneal 4 mg/kg at 15 min) was “significant improvement; also recorded: significantly better motor performance; also recorded: significant attenuation of TBI-induced motor function deficits; also recorded: significantly better motor function” and the “Motor function (neuroscore) compared to vehicle-treated rats” value ([2]; intraperitoneal 16 mg/kg at 15 min) was “significant improvement; also recorded: significantly better motor performance; also recorded: significant attenuation of TBI-induced motor function deficits; also recorded: significantly better motor function”. The “Morris water maze memory score (cognitive deficits) vs vehicle-treated injured rats” value [3, 11] was “significantly attenuated TBI-related cognitive deficits”, the “Morris water maze memory score (cognitive deficits) vs vehicle-treated injured rats” value [3, 12] was “significantly attenuated TBI-related cognitive deficits” and the “Morris water maze memory score (cognitive deficits) vs vehicle-treated injured rats” value [3, 13] was “significantly attenuated TBI-related cognitive deficits”. For the same compound, the “Morris water maze memory score (cognitive deficits) vs vehicle-treated injured rats” value [3, 14] was “significantly attenuated TBI-related cognitive deficits”, the “Morris water maze memory score (cognitive deficits) vs vehicle-treated injured rats” value [3, 15] was “ameliorated; also recorded: vehicle-treated injured rats have significantly worse cognitive function; also recorded: amelioration of TBI-induced cognitive deficits” and the “Morris water maze memory score (cognitive deficits) vs vehicle-treated injured rats” value [3, 16] was “ameliorated; also recorded: vehicle-treated injured rats have significantly worse cognitive function; also recorded: amelioration of TBI-induced cognitive deficits”. The “Time spent in thigmotaxia vs vehicle-treated injured rats” value [4, 11] was “vehicle-treated rats spend significantly more time in thigmotaxia”, the “Time spent in thigmotaxia vs vehicle-treated injured rats” value [4, 12] was “vehicle-treated rats spend significantly more time in thigmotaxia” and the “Time spent in thigmotaxia vs vehicle-treated injured rats” value [4, 13] was “vehicle-treated rats spend significantly more time in thigmotaxia”. For the same compound, the “Time spent in thigmotaxia vs vehicle-treated injured rats” value [4, 14] was “vehicle-treated rats spend significantly more time in thigmotaxia”, the “Time spent in thigmotaxia vs vehicle-treated injured rats” value [4, 15] was “ameliorated; also recorded: vehicle-treated injured rats spend significantly more time in thigmotaxia; also recorded: spend less time in the thigmotaxia area” and the “Time spent in thigmotaxia vs vehicle-treated injured rats” value [4, 16] was “ameliorated; also recorded: vehicle-treated injured rats spend significantly more time in thigmotaxia; also recorded: spend less time in the thigmotaxia area”. For the same compound, the “Motor function (neuroscore) compared to vehicle-treated rats” value ([5]; 24 h post-injury, intranasal 0.1 mg/kg) was “significantly improved motor function”, the “Motor function (neuroscore) compared to vehicle-treated rats” value ([5]; 24 h post-injury, intranasal 0.1 mg/kg, listed as PRV002) was “significantly improved” and the “Motor function (neuroscore) compared to vehicle-treated rats” value ([5]; 24 h post-injury, intranasal 4 mg/kg) was “significantly improved motor function”. The “Motor function (neuroscore) compared to vehicle-treated rats” value ([5]; 24 h post-injury, intranasal 4 mg/kg, listed as PRV002) was “significantly improved”, the “Motor function (neuroscore) compared to vehicle-treated rats” value [5, 17] was “significantly better motor function” and the “Motor performance (neuroscore) compared to sham rats” value [5, 17] was “significantly worse performance”. The “Motor function (neuroscore) compared to vehicle-treated rats” value ([5]; 48 h post-injury, intranasal 0.05 mg/kg, listed as PRV002) was “significantly improved motor function”, the “Motor function (neuroscore) compared to vehicle-treated rats” value ([5]; 48 h post-injury, intranasal 0.1 mg/kg) was “significantly better motor function” and the “Motor function (neuroscore) compared to vehicle-treated rats” value ([5]; 48 h post-injury, intranasal 0.1 mg/kg, listed as PRV002) was “significantly improved motor function”. For the same compound, the “Motor performance (neuroscore) compared to sham rats” value ([5]; 48 h post-injury, intranasal 1 mg/kg) was “significantly worse performance”, the “Motor function (neuroscore) compared to vehicle-treated rats” value ([5]; 48 h post-injury, intranasal 4 mg/kg) was “significantly better motor function” and the “Motor function (neuroscore) compared to vehicle-treated rats” value ([5]; 48 h post-injury, intranasal 4 mg/kg, listed as PR V-002) was “significantly better motor function”. For the same compound, the “Motor function (neuroscore) compared to vehicle-treated rats” value ([5]; 48 h post-injury, intranasal 4 mg/kg, listed as PRV002) was “significantly improved motor function”, the “Motor performance scores (neuroscore) compared to sham rats” value ([5]; rat, in vivo) was “not significantly different from sham rats” and the “Cognitive function (post-traumatic memory)” value ([6]; 48 h post-injury/treatment, intranasal 4 mg/kg, trial not stated) was “significant improvement in cognitive function”. The “Morris water maze memory score (cognitive performance) compared to all other groups” value ([6]; rat, in vivo) was “all groups have significantly lower memory scores than PRV-002 4 mg/kg-treated rats”, the “Morris water maze memory score (cognitive performance) compared to all other groups” value ([6]; trial 1, 48 h post-injury, intranasal 4 mg/kg) was “significantly better cognitive performance” and the “Group differences in cognitive performance (Morris water maze memory score)” value ([6]; trial 2, 48 h post-injury, intranasal 0.05, 0.1, 1, 4 mg/kg groups) was “significant group differences in cognitive performance are not observed”. For the same compound, the “Group differences in time spent in thigmotaxia” value ([7]; trial 1, intranasal 0.05, 0.1, 1, 4 mg/kg groups) was “no significant group differences are observed in time spent in thigmotaxia”, the “Time spent in thigmotaxia compared to vehicle-treated injured rats” value ([7]; trial 2, intranasal 4 mg/kg) was “significantly less time in thigmotaxia” and the “Time spent in thigmotaxia compared to sham rats” value ([7]; trial 2, intranasal 005 mg/kg) was “significantly more time in thigmotaxia”. For the same compound, the “Time spent in thigmotaxia compared to vehicle-treated rats” value ([7]; intranasal 4 mg/kg) was “spent significantly less time in thigmotaxia”, the “Time spent in thigmotaxia compared to vehicle-treated rats” value ([7]; intranasal 4 mg/kg, listed as PRV002) was “significantly reduced” and the “Nasal mucosal penetration, miniature atomizer vs manual pipette” value [8] was “clear advantage of the miniature atomizer over the pipette technique”. For the same compound, the Resultant solution (30 mg in 1 ml Solution 1, mix time 60 min) was “Hazy”, the Resultant solution (+0.1 ml Solution 1, ~1.1 ml, mix time 120 min) was “Hazy” and the Resultant solution (+0.1 ml Solution 1, ~1.2 ml, mix O/N) was “Hazy to Clear”. The solubility [9] was ~23 mg/mL (≈ 76.6 mM).
For CC(=O)[C@@H]1CC[C@@H]2[C@H]3CCC4=CC(=O)CC[C@@]4(C)[C@@H]3CC[C@]21C [ent-Progesterone, ent-progesterone], the “Antioxidant activity relative to racemate” value [10] is listed as “three times the antioxidant activity of racemate”.
